Drawing on patent EP3033337B1, “SUBSTITUTED IMIDAZOLES AS N-TYPE CALCIUM CHANNEL BLOCKERS” (Janssen Pharmaceutica NV, priority 2013, dated 2015), this text covers IC50 and inhibition for 24 compounds.

Where two headings read alike, the source gives them in different places.

What is called IC50 is the concentration needed to halve the response being measured. As usually defined, the inhibition is how much of the control response was suppressed.

For test [1], the target named is T1, human N-type Ca channel (Homo sapiens, UniProt Q00975). Nature of the test: Calcium influx assay (FDSS), KCl depolarization, Fluo8 dye. It is filed as cell-based. More on the design: host or cells: HEK 293. An outline of the steps: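 HEK293 cells stably expressing the human N-type Ca channel were loaded with Fluo8 and washed in choline-based buffer (pH 7.2, 2 mM CaCl2, 2 mM KCl). Cells were preincubated with serially diluted compound for 15 min in the dark. Ca influx was then recorded by fluorescence after depolarization with 100 mM KCl.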

In test [2] the target is T1, human N-type Ca channel. Nature of the test: Electrophysiological response, QPatch (depolarization -80 mV to +20 mV). On the technique in general: The patch-clamp technique gives a direct electrical read-out from membranes.
Where [3] appears, read: HEK 293 cells expressing human N-type Ca channel, 100 mM KCl, read-out: N Type IC50 Data FDSS.
Where [4] appears, read: N Type IC50 Data Qpatch Pulse=1, Pulse=1, concentration range 0.01-1 µM.
Setting [5] is: N Type IC50 Data Qpatch Pulse=15, Pulse=15, concentration range 0.01-1 µM.
Where [6] appears, read: N Type IC50 Data Qpatch Pulse=1, Pulse=1, concentration range 0.3-10 µM.
Setting [7] is: N Type IC50 Data Qpatch Pulse=15, Pulse=15, concentration range 0.3-10 µM.
The mark [8] stands for this setting: read-out: N Type IC50 Data Qpatch Pulse=1, Pulse=1, concentration range 0.01-1 µM.
Setting [9] is: read-out: N Type IC50 Data Qpatch Pulse=15, Pulse=15, concentration range 0.01-1 µM.
The mark [10] stands for this setting: read-out: Qpatch Pulse=1 (percent inhibition).
Where [11] appears, read: read-out: Qpatch Pulse=15 (percent inhibition).

T1 sequence (Q00975 whole entry): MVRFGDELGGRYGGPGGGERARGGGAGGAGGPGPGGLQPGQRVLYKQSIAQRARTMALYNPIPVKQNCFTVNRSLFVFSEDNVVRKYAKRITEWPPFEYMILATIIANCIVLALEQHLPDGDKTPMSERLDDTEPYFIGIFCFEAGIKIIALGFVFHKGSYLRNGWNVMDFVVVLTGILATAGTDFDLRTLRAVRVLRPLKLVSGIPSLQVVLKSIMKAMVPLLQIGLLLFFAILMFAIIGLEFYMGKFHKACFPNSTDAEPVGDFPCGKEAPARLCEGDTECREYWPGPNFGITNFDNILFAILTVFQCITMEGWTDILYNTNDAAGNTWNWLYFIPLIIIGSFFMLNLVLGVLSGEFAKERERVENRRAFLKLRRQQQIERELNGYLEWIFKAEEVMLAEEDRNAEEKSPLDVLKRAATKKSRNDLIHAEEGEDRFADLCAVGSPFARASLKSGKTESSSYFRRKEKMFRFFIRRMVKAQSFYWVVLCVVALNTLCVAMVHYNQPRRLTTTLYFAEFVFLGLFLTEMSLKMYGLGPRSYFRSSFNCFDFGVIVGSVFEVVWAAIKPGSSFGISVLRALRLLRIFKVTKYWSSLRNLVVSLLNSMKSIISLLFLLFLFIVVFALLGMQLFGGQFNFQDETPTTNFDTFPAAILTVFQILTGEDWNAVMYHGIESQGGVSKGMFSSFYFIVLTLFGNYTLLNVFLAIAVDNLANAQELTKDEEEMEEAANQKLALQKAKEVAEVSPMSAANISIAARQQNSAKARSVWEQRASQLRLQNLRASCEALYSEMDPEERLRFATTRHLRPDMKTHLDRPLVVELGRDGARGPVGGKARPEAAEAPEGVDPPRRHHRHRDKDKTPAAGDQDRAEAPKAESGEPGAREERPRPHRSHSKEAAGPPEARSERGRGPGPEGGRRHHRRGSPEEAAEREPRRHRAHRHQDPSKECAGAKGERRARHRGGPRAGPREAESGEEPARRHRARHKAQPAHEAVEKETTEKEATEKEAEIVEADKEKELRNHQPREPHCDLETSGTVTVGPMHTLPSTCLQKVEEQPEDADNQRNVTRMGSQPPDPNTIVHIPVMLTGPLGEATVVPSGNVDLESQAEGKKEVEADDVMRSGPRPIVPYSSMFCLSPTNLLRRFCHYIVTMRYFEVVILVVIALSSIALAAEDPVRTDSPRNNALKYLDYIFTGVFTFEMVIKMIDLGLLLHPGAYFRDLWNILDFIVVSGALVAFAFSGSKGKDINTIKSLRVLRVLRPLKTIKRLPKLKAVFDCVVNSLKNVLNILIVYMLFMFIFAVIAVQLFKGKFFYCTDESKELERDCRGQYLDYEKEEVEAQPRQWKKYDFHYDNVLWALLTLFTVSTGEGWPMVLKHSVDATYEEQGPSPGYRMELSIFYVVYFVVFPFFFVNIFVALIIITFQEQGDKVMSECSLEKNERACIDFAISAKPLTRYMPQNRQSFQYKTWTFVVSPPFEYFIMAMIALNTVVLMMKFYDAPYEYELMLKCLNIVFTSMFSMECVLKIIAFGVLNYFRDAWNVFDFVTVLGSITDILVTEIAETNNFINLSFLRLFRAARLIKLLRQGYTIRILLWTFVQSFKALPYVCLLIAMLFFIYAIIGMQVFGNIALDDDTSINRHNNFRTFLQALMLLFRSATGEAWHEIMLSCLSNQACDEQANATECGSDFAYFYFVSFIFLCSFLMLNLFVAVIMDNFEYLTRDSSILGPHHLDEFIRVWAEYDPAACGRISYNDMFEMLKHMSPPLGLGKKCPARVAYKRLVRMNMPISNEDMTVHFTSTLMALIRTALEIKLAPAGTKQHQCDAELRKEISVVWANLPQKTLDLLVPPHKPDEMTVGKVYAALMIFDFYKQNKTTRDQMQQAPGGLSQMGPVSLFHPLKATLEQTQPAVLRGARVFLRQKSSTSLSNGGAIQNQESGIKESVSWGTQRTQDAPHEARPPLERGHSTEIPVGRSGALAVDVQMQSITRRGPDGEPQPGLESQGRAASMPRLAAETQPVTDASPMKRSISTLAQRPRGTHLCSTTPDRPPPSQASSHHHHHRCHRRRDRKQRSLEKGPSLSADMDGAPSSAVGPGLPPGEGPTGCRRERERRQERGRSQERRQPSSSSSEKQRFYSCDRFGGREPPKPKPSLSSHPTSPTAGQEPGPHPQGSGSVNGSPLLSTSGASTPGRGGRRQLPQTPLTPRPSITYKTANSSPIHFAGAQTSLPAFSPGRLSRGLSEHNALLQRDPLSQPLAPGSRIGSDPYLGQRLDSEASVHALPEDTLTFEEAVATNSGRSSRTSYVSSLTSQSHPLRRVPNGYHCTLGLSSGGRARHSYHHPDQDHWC
T1 sequence (P54284 whole entry partner): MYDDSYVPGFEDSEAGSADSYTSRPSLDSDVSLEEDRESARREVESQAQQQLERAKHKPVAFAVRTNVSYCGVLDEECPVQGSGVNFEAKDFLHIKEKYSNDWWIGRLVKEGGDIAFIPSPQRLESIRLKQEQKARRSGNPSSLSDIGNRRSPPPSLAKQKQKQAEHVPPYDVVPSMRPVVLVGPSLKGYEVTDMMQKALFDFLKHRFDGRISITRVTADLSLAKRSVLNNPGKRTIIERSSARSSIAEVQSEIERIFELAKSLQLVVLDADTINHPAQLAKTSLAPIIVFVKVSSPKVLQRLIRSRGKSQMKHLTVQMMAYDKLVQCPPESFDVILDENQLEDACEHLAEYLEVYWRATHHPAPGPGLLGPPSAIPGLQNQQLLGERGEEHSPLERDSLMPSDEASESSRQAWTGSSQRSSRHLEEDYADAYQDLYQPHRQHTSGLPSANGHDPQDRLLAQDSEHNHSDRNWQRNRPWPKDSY
T1 sequence (P54289 25-956 partner limits assumed): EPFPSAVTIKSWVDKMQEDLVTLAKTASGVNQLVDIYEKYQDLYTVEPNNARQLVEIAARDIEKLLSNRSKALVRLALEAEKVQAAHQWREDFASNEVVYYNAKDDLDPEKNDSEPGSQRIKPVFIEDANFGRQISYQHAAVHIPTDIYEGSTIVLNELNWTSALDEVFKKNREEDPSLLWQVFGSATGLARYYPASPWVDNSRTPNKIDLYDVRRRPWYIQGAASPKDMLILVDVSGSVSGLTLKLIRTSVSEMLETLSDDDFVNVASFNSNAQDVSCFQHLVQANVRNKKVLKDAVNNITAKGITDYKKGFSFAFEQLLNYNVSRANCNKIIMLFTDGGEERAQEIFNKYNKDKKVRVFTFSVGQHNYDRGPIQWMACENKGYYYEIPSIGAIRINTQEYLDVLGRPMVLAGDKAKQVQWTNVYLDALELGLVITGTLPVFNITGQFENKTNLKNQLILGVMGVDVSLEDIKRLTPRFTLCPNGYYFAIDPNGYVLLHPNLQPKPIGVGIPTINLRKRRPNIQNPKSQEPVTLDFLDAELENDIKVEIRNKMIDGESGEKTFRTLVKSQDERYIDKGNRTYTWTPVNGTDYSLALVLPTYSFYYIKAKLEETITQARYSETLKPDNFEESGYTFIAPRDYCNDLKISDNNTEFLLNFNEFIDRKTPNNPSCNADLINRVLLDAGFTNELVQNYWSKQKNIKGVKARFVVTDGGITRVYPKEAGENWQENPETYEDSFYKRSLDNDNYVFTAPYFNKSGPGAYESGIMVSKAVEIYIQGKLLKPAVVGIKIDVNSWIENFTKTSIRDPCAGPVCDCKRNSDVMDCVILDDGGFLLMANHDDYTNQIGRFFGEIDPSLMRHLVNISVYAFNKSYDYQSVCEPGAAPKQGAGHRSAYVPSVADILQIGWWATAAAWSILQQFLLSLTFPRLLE
T1 sequence (P54289 957-1103 partner limits assumed): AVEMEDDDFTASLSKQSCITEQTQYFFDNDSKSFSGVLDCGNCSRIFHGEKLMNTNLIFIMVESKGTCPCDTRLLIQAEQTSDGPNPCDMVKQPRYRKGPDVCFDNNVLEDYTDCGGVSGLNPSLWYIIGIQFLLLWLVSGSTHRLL

As to `COc1ncccc1-c1nc(C2CC(C)(C)OC(C)(C)C2)c(Cl)n1-c1ccc(F)cc1` [Compound 92, 3-(5-chloro-1-(4-fluorophenyl)-4-(2,2,6,6-tetramethyltetrahydro-2H-pyran-4-yl)-1H-imidazol-2-yl)-2-methoxypyridine], the 50% inhibitory concentration (IC50) in test [1] (setting [3]) was 41 nM; in test [2] (setting [4]) it was 253 nM; in test [2] (setting [5]), 269 nM.
Consider `COc1ncccc1-c1nc(C2CC(C)(C)OC(C)(C)C2)c(Cl)n1-c1ccc(Cl)cc1` [Compound 93, 3-(5-chloro-1-(4-chlorophenyl)-4-(2,2,6,6-tetramethyltetrahydro-2H-pyran-4-yl)-1H-imidazol-2-yl)-2-methoxypyridine], for which the values for the half-maximal inhibitory concentration (IC50) in test [1], in test [2] (setting [6]) and in test [2] (setting [7]) were 150 nM, 6500 nM and 1800 nM, respectively.
Regarding `COc1ccccc1-c1nc(C2CC(C)(C)OC(C)(C)C2)cn1S(=O)(=O)C(F)(F)F` [Compound 94, 2-(2-methoxyphenyl)-4-(2,2,6,6-tetramethyltetrahydro-2H-pyran-4-yl)1((trifluoromethyl)sulfonyl)-1H-imidazole], the IC50 is 551 nM in test [1] (setting [3]), greater than 1000 nM in test [2] (setting [8]) and greater than 1000 nM in test [2] (setting [9]).
`COc1ccccc1-c1nc(C2CC(C)(C)OC(C)(C)C2)cn1S(=O)(=O)C1CC1` [Compound 95, 1-(cyclopropylsulfonyl)-2-(2-methoxyphenyl)-4-(2,2,6,6-tetramethyltetrahydro-2H-pyran-4-yl)-1H-imidazole]: the IC50 in test [1] (setting [3]) is 10000 nM; in test [2] (setting [8]), greater than 1000 nM; in test [2] (setting [9]), greater than 1000 nM.
For `COc1ccccc1-c1nc(C2CC(C)(C)OC(C)(C)C2)cn1S(=O)(=O)CC(C)C` [Compound 96, 1-(isobutylsulfonyl)-2-(2-methoxyphenyl)-4-(2,2,6,6-tetramethyltetrahydro-2H-pyran-4-yl)-1H-imidazole], the IC50 in test [1] was 768 nM; in test [2] (setting [7]) it was 5400 nM.
As for `COc1ccccc1-c1nc(C2CC(C)(C)OC(C)(C)C2)cn1S(=O)(=O)c1ccc(Cl)cc1` [Compound 97, 1-((4-chlorophenyl)sulfonyl)-2-(2-methoxyphenyl)-4-(2,2,6,6-tetramethyltetrahydro-2H-pyran-4-yl)-1H-imidazole], the figures for the concentration for half-maximal inhibition (IC50) in test [1] (setting [3]) and in test [2] (setting [7]) were 515 nM and 3080 nM, respectively.
As for `COc1ccccc1-c1nc(C2CC(C)(C)OC(C)(C)C2)cn1S(=O)(=O)c1ccc(F)cc1` [Compound 98, 1-((4-fluorophenyl)sulfonyl)-2-(2-methoxyphenyl)-4-(2,2,6,6-tetramethyltetrahydro-2H-pyran-4-yl)-1H-imidazol,], the figures for the half-maximal inhibitory concentration (IC50) in test [1] (setting [3]), in test [2] (setting [6]) and in test [2] (setting [7]) were 692 nM, 9020 nM and 3600 nM, respectively.
Consider `COc1ccccc1-c1nc(C2CC(C)(C)OC(C)(C)C2)cn1Cc1ccc(C#N)cc1` [Compound 99, 4-((2-(2-methoxyphenyl)-4-(2,2,6,6-tetramethyltetrahydro-2H-pyran-4-yl)-1H-imidazol-1-yl)methyl)benzonitrile], for which the figures for the IC50 in test [1] (setting [3]), in test [2] (setting [8]) and in test [2] (setting [9]) were 10900 nM, greater than 1000 nM and greater than 1000 nM, respectively.
For `COc1ccccc1-c1nc(C2CC(C)(C)OC(C)(C)C2)cn1Cc1cccc(C#N)c1` [Compound 101, 3-((2-(2-methoxyphenyl)-4-(2,2,6,6-tetramethyltetrahydro-2H-pyran-4-yl)-1H-imidazol-1-yl)methyl) benzonitrile], the concentration for half-maximal inhibition (IC50) in test [1] (setting [3]) was 3580 nM; in test [2] (setting [4]), greater than 1000 nM; in test [2] (setting [9]), greater than 1000 nM.
Consider `COc1ccccc1-c1nc(C2(O)CC(C)(C)OC(C)(C)C2)cn1-c1ccc(Cl)cc1` [Compound 102, 4-(1-(4-chlorophenyl)-2-(2-methoxyphenyl)-1H-imidazol-4-yl)-2,2,6,6-tetramethyltetrahydro-2H-pyran-4-ol], for which the IC50 in test [1] (setting [3]) was found to be 37 nM; in test [2] (setting [7]), 1740 nM. Also, the inhibition at 10 µM in test [2] (setting [10]) turned out to be 48%.
`COc1ccncc1-c1nc(C2(O)CC(C)(C)OC(C)(C)C2)cn1-c1ccc(Cl)cc1` [Compound 103, 4-(1-(4-chlorophenyl)-2-(4-methoxypyridin-3-yl)-1H-imidazol-4-yl)-2,2,6,6-tetramethyltetrahydro-2H-pyran-4-ol]: the concentration for half-maximal inhibition (IC50) worked out at 367 nM in test [1] (setting [3]) and 4300 nM in test [2] (setting [6]). Moreover, the inhibition at 10 µM in test [2] (setting [11]) stood at 31%.
For `COc1ncccc1-c1nc(C2(O)CC(C)(C)OC(C)(C)C2)cn1-c1ccc(Cl)cc1` [Compound 105, 4-(1-(4-chlorophenyl)-2-(2-methoxypyridin-3-yl)-1H-imidazol-4-yl)-2,2,6,6-tetramethyltetrahydro-2H-pyran-4-ol], the IC50 in test [1] (setting [3]) was 300 nM; in test [2] (setting [4]), 964 nM; in test [2] (setting [6]) it was 8300 nM; in test [2] (setting [7]), 3820 nM; in test [2] (setting [9]), greater than 1000 nM.
As for `COc1ccccc1-c1nc(C2(O)CC(C)(C)OC(C)(C)C2)cn1-c1ccc(F)c(F)c1` [Compound 107, 4-(1-(3,4-difluorophenyl)-2-(2-methoxyphenyl)-1H-imidazol-4-yl)-2,2,6,6-tetramethyltetrahydro-2H-pyran-4-ol], the IC50 in test [1] (setting [3]) turned out to be 430 nM; in test [2] (setting [6]) it was 3530 nM; in test [2] (setting [7]) it was 2420 nM.
For `COc1ncccc1-c1nc(C2(O)CC(C)(C)OC(C)(C)C2)cn1-c1ccc(F)c(F)c1` [Compound 108, 4-(1-(3,4-difluorophenyl)-2-(2-methoxypyridin-3-yl)-1H-imidazol-4-yl)-2,2,6,6-tetramethyltetrahydro-2H-pyran-4-ol] the same measures were 394 nM, 5800 nM and 7400 nM.
Turning to `COc1ccccc1-c1nc(C2(O)CC(C)(C)OC(C)(C)C2)cn1-c1ccc(C(F)(F)F)nc1` [Compound 109, 4-(2-(2-methoxyphenyl)-1-(6-(trifluoromethyl)pyridin-3-yl)-1H-imidazol-4-yl)-2,2,6,6-tetramethyltetrahydro-2H-pyran-4-ol], the IC50 was determined as 322 nM in test [1] (setting [3]), 4500 nM in test [2] (setting [6]) and 7900 nM in test [2] (setting [7]).
Turning to `COc1ncccc1-c1nc(C2(O)CC(C)(C)OC(C)(C)C2)cn1-c1ccc(F)c(Cl)c1` [Compound 110, 4-(1-(3-chloro-4-fluorophenyl)-2-(2-methoxypyridin-3-yl)-1H-imidazol-4-yl)-2,2,6,6-tetramethyltetrahydro-2H-pyran-4-ol], in test [1] (setting [3]), the IC50 came to 385 nM. For the same compound, the inhibition at 10 µM in test [2] (setting [10]) was 44%; in test [2] (setting [11]), 30%.
As to `COc1ccccc1-c1nc(C2(O)CC(C)(C)OC(C)(C)C2)cn1-c1ccc(F)c(Cl)c1` [Compound 111, 4-(1-(3-chloro-4-fluorophenyl)-2-(2-methoxyphenyl)-1H-imidazol-4-yl)-2,2,6,6-tetramethyltetrahydro-2H-pyran-4-ol], the IC50 in test [1] (setting [3]) is 257 nM; in test [2] (setting [7]) it was 2500 nM. Moreover, in test [2] (setting [10]), the inhibition at 10 µM was 62%.
On to `COc1ccccc1-c1nc(C2(O)CC(C)(C)OC(C)(C)C2)cn1-c1ccc(Cl)c(F)c1` [Compound 112, 4-(1-(4-chloro-3-fluorophenyl)-2-(2-methoxyphenyl)-1H-imidazol-4-yl)-2,2,6,6-tetramethyltetrahydro-2H-pyran-4-ol], for which the IC50 in test [1] (setting [3]) was found to be 41 nM; in test [2] (setting [6]), 2500 nM; in test [2] (setting [7]) it was 3000 nM.
On the same counts, the results for `COc1ncccc1-c1nc(C2(O)CC(C)(C)OC(C)(C)C2)cn1-c1ccc(Cl)c(F)c1` [Compound 113, 4-(1-(4-chloro-3-fluorophenyl)-2-(2-methoxypyridin-3-yl)-1H-imidazol-4-yl)-2,2,6,6-tetramethyltetrahydro-2H-pyran-4-ol] are 83 nM, 4400 nM and 7800 nM.
Take `CCOc1ncccc1-c1nc(C2(O)CC(C)(C)OC(C)(C)C2)cn1-c1ccc(Cl)cc1` [Compound 114, 4-(1-(4-chlorophenyl)-2-(2-ethoxypyridin-3-yl)-1H-imidazol-4-yl)-2,2,6,6-tetramethyltetrahydro-2H-pyran-4-ol]: the figures for the 50% inhibitory concentration (IC50) in test [1] (setting [3]), in test [2] (setting [4]) and in test [2] (setting [5]) were 607 nM, 668 nM and greater than 1000 nM, respectively.
In the case of `COc1ccccc1-c1nc(C2(O)CC(C)(C)OC(C)(C)C2)cn1-c1ccc(F)c(C#N)c1` [Compound 117, 2-fluoro-5-(4-(4-hydroxy-2,2,6,6-tetramethyltetrahydro-2H-pyran-4-yl)-2-(2-methoxyphenyl)-1H-imidazol-1-yl)benzonitrile], in test [1] (setting [3]), the IC50 came out at 1440 nM. Further, the inhibition at 10 µM in test [2] (setting [10]) was found to be 40%; in test [2] (setting [11]) it was 25%.
`COc1ccccc1-c1nc(C2(O)CC(C)(C)OC(C)(C)C2)cn1-c1ccc(C#N)c(F)c1` [Compound 118, 2-fluoro-4-(4-(4-hydroxy-2,2,6,6-tetramethyltetrahydro-2H-pyran-4-yl)-2-(2-methoxyphenyl)-1H-imidazol-1-yl)benzonitrile]: the figures for the IC50 in test [1] (setting [3]) and in test [2] (setting [6]) were 150 nM and 8100 nM, respectively.
In the case of `COc1ncccc1-c1nc(C2(O)CC(C)(C)OC(C)(C)C2)cn1-c1ccc(C#N)c(F)c1` [Compound 119, 2-fluoro-4-(4-(4-hydroxy-2,2,6,6-tetramethyltetrahydro-2H-pyran-4-yl)-2-(2-methoxypyridin-3-yl)-1H-imidazol-1-yl)benzonitrile], in test [1] (setting [3]), the 50% inhibitory concentration (IC50) was 1290 nM. In test [2] (setting [10]), the inhibition at 10 µM is 28%.
Take `COc1cnccc1-c1nc(C2(O)CC(C)(C)OC(C)(C)C2)cn1-c1ccc(Cl)cc1` [Compound 120, 4-(1-(4-chlorophenyl)-2-(3-methoxypyridin-4-yl)-1H-imidazol-4-yl)-2,2,6,6-tetramethyltetrahydro-2H-pyran-4-ol]: the IC50 is 108 nM in test [1] (setting [3]), 1600 nM in test [2] (setting [6]) and 9100 nM in test [2] (setting [7]).
